Our source for the IC50 values is patent US20260325533A1, “CDK INHIBITOR COMPOUNDS” (ALEKSIA THERAPEUTICS, INC., priority 2023, published 2026).

Holding throughout (assay type): biochemical
The target of one assay is CDK2/CCNE1 (Homo sapiens, UniProt P24941). Description: CDK2 homogeneous time-resolved fluorescence (HTRF) kinase assay. To be noted: CDK2/CCNE. Summed up: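 Compounds were titrated 11-point, half-log from typically 10 μM against 3 nM CDK2/cyclin E1 at 1 mM ATP, with a 20 min enzyme preincubation. Phosphorylation of 50 nM ULight-4E-BP1 peptide over 60 min at 23 °C was detected by europium anti-phospho antibody TR-FRET.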
(In general: In TR-FRET formats the signal depends on donor and acceptor labels being close together.)

Another assay deals with CDK1/CCNB1 (Homo sapiens, UniProt P06493). Put plainly: CDK1 homogeneous time-resolved fluorescence (HTRF) kinase assay. The conditions noted are these: CDK1/CCNB. Summed up: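 High-ATP (1 mM) HTRF assay with 0.5 nM CDK1/cyclin B1 and 50 nM ULight-4E-BP1 (Thr37/46) substrate, 60 min at 23 °C after 20-min compound preincubation. IC50 values come from dose-response curves.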

The next assay has as its target CDK4/CCND3 (Homo sapiens, UniProt P11802). Put plainly: CDK4 homogeneous time-resolved fluorescence (HTRF) kinase assay. The conditions noted are these: CDK4/CCND. Summed up: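 Inhibition of CDK4/CCND3 (1.5 nM) was measured at high ATP (1 mM) using 50 nM ULight-labelled 4E-BP1 Thr37/46 peptide; detection used 2 nM europium anti-phospho antibody after EDTA quench. IC50 values came from 11-point half-log titrations typically starting at 10 μM.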

A further assay addresses CDK6/CCND1 (Homo sapiens, UniProt Q00534). Put plainly: CDK6 homogeneous time-resolved fluorescence (HTRF) kinase assay. To be noted: CDK6/CCND. Summed up:
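1 nM enzyme, 1 mM ATP, 50 nM ULight-4E-BP1 (Thr37/46) peptide, 1% DMSO; 20 min compound preincubation, 60 min reaction, 23 °C. EDTA stop, 2 nM Eu-anti-phospho-4E-BP1 antibody 60 min. TR-FRET 665 nm (or 665/615 ratio); IC50 from 11-point half-log titration, top 10 μM.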

The mark [1] stands for this setting: <25 nM, read-out: CDK2/CCNE IC50 <25 nM.
Where [2] appears, read: >250 nM marked x, read-out: CDK1/CCNB IC50 >250 nM.
Setting [3] is: >250 nM marked x, read-out: CDK4/CCND IC50 >250 nM.
Where [4] appears, read: >250 nM marked x, read-out: CDK6/CCND IC50 >250 nM.
Where [5] appears, read: 25-250 nM marked x, read-out: CDK1/CCNB IC50 25-250 nM.
The mark [6] stands for this setting: x = IC50 <25 nM, read-out: CDK2/CCNE IC50 (<25 nM).
Setting [7] is: x = IC50 25-250 nM, read-out: CDK1/CCNB IC50 (25-250 nM).
Setting [8] is: x = IC50 25-250 nM, read-out: CDK4/CCND IC50 (25-250 nM).
[9] abbreviates: x = IC50 >250 nM, read-out: CDK6/CCND IC50 (>250 nM column).
Setting [10] is: x = IC50 25-250 nM, read-out: CDK6/CCND IC50 (25-250 nM).

Like-named read-outs stand apart in the source and are kept apart here.

Sequence of CDK4/CCND3 (P11802 whole entry): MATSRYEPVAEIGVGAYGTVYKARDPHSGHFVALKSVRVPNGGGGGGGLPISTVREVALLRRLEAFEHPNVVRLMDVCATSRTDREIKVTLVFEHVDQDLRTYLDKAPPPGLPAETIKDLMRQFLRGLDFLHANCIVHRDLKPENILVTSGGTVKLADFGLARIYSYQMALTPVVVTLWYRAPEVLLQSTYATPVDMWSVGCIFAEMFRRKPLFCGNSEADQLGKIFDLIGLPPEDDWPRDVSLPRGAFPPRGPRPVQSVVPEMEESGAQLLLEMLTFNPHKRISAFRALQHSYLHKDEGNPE
Sequence of CDK4/CCND3 (P30281 whole entry partner): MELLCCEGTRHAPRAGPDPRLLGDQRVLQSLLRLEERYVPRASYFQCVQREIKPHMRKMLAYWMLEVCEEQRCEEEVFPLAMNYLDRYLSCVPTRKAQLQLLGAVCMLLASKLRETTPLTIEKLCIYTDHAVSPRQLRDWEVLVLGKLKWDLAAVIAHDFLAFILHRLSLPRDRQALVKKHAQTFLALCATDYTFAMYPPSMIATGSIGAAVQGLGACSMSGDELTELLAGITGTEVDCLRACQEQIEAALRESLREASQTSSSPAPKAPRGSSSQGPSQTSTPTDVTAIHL
Sequence of CDK6/CCND1 (Q00534 whole entry): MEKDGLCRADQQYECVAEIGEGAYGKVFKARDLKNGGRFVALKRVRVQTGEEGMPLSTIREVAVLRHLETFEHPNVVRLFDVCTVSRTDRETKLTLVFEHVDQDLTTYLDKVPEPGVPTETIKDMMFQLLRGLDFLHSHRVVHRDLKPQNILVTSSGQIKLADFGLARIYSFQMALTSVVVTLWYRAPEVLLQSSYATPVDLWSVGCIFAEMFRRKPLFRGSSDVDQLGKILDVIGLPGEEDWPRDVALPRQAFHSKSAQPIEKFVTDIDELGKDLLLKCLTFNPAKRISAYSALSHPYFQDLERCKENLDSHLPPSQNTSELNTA
Sequence of CDK6/CCND1 (P24385 whole entry partner): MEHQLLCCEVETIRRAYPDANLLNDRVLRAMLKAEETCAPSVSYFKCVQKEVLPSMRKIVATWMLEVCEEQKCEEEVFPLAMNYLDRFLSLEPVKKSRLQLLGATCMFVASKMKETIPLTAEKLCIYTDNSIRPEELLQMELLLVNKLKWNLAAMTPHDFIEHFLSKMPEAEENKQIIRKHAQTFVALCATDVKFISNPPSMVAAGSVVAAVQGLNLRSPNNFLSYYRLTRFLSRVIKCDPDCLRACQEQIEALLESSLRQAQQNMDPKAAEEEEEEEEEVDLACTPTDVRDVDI
Sequence of CDK1/CCNB1 (P06493 whole entry): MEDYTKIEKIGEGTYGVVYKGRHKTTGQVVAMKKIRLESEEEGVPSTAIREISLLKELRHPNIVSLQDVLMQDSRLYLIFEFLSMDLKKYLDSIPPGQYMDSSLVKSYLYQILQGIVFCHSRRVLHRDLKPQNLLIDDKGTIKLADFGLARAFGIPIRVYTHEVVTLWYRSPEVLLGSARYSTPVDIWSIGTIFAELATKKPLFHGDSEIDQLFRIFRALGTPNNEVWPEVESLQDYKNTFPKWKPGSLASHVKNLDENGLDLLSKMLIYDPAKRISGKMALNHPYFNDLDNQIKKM
Sequence of CDK1/CCNB1 (P14635 whole entry partner): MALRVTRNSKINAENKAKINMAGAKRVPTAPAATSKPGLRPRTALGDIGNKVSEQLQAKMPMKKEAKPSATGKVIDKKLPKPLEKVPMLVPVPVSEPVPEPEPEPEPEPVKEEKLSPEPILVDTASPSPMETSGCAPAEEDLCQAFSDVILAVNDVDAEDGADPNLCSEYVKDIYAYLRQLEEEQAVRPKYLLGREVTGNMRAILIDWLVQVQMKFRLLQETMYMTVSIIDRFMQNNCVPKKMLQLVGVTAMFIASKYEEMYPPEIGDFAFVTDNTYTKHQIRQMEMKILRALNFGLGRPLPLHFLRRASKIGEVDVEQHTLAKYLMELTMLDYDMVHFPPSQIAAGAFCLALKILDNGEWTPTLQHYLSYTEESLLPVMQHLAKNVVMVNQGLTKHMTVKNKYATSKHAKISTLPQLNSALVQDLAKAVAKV

For `COc1cc(S(=N)(=O)C2COC2)ccc1Nc1cc2c(C#Cc3ccc4c(c3)NC(=O)C43CC3)nccc2cn1` (single isomer, unassigned) [Ex 323, 6'-((7-((2-methoxy-4-(oxetane-3-sulfonimidoyl)phenyl)amino)-2,6-naphthyridin-1-yl)ethynyl)spiro[cyclopropane-1,3'-indolin]-2'-one], the IC50 on CDK2/CCNE1 (setting [1]) was under 25 nM; at CDK1/CCNB1 (setting [2]), over 250 nM; on CDK4/CCND3 (setting [3]) it was over 250 nM; at CDK6/CCND1 (setting [4]), over 250 nM.

Consider `Cc1cc(S(C)(=N)=O)ccc1Nc1cc2c(C#Cc3ccc4c(c3)NC(=O)C43CC3)nccc2cn1` (single isomer, unassigned) [Ex 326, 6'-((7-((2-methyl-4-(S-methylsulfonimidoyl)phenyl)amino)-2,6-naphthyridin-1-yl)ethynyl)spiro[cyclopropane-1,3'-indolin]-2'-one], for which the IC50 at CDK2/CCNE1 (setting [1]) is under 25 nM; on CDK1/CCNB1 (setting [5]), 25 to 250 nM; on CDK4/CCND3 (25-250 nM marked x, read-out: CDK4/CCND IC50 25-250 nM) it was 25 to 250 nM; at CDK6/CCND1 (setting [4]) it was over 250 nM.

Turning to `Cc1cc(S(C)(=N)=O)ccc1Nc1cc2c(C#Cc3ccc4c(c3)NC(=O)C43CCC3)nccc2cn1` (single isomer, unassigned) [Ex 332, 6'-((7-((2-methyl-4-(S-methylsulfonimidoyl)phenyl)amino)-2,6-naphthyridin-1-yl)ethynyl)spiro[cyclobutane-1,3'-indolin]-2'-one], the IC50 on CDK2/CCNE1 (setting [1]) is under 25 nM; on CDK1/CCNB1 (setting [2]) it was over 250 nM; on CDK4/CCND3 (setting [3]), over 250 nM; at CDK6/CCND1 (setting [4]), over 250 nM.

`COc1cc(S(=N)(=O)C(C)C)ccc1Nc1cc2c(C#Cc3ccc4c(c3)NC(=O)C43CC3)nccc2cn1` (single isomer, unassigned) [Ex 334, 6'-((7-((2-methoxy-4-(propan-2-ylsulfonimidoyl)phenyl)amino)-2,6-naphthyridin-1-yl)ethynyl)spiro[cyclopropane-1,3'-indolin]-2'-one]: the IC50 at CDK2/CCNE1 (setting [1]) was under 25 nM; at CDK1/CCNB1 (setting [2]) it was over 250 nM; on CDK4/CCND3 (setting [3]), over 250 nM; at CDK6/CCND1 (setting [4]), over 250 nM.

Regarding `CCC1(CC)C(=O)Nc2cc(C#Cc3nccc4cnc(Nc5ccc(S(C)(=N)=O)cc5C)cc34)ccc21` (single isomer, unassigned) [Ex 336, 3,3-diethyl-6-((7-((2-methyl-4-(S-methylsulfonimidoyl)phenyl)amino)-2,6-naphthyridin-1-yl)ethynyl)indolin-2-one], the IC50 was under 25 nM on CDK2/CCNE1 (setting [1]), 25 to 250 nM on CDK1/CCNB1 (setting [5]), over 250 nM on CDK4/CCND3 (setting [3]) and over 250 nM at CDK6/CCND1 (setting [4]).

Consider `CCC1(CC)C(=O)Nc2cc(C#Cc3nccc4cnc(Nc5ccc(S(=N)(=O)C6CC6)cc5)cc34)ccc21` (single isomer, unassigned) [Ex 339, 6-((7-((4-(cyclopropanesulfonimidoyl)phenyl)amino)-2,6-naphthyridin-1-yl)ethynyl)-3,3-diethylindolin-2-one], for which the IC50 on CDK2/CCNE1 (setting [1]) is under 25 nM; at CDK1/CCNB1 (setting [5]), 25 to 250 nM; at CDK4/CCND3 (setting [3]), over 250 nM; at CDK6/CCND1 (setting [4]) it was over 250 nM.

On to `CCC1(CC)C(=O)Nc2cc(C#Cc3nccc4cnc(Nc5ccc(S(=N)(=O)C(C)C)cc5OC)cc34)ccc21` (single isomer, unassigned) [Ex 340, 3,3-diethyl-6-((7-((2-methoxy-4-(propan-2-ylsulfonimidoyl)phenyl)amino)-2,6-naphthyridin-1-yl)ethynyl)indolin-2-one], for which the IC50 is under 25 nM on CDK2/CCNE1 (setting [1]), over 250 nM on CDK1/CCNB1 (setting [2]), over 250 nM on CDK4/CCND3 (setting [3]) and over 250 nM at CDK6/CCND1 (setting [4]).

In the case of `N=S(=O)(c1ccc(Nc2cc3c(C#Cc4ccc5c(c4)NC(=O)C54CCC4)nccc3cn2)cc1)C1CC1` (single isomer, unassigned) [Ex 344, 6'-((7-((4-(cyclopropanesulfonimidoyl)phenyl)amino)-2,6-naphthyridin-1-yl)ethynyl)spiro[cyclobutane-1,3'-indolin]-2'-one], the IC50 at CDK2/CCNE1 (setting [6]) is under 25 nM; on CDK1/CCNB1 (setting [7]), 25 to 250 nM; on CDK4/CCND3 (setting [8]), 25 to 250 nM; on CDK6/CCND1 (setting [9]) it was over 250 nM.

Take `COc1cc(S(=N)(=O)C(C)C)ccc1Nc1cc2c(C#Cc3ccc4c(c3)NC(=O)C43CCC3)nccc2cn1` (single isomer, unassigned) [Ex 345, 6'-((7-((2-methoxy-4-(propan-2-ylsulfonimidoyl)phenyl)amino)-2,6-naphthyridin-1-yl)ethynyl)spiro[cyclobutane-1,3'-indolin]-2'-one]: the IC50 was under 25 nM at CDK2/CCNE1 (setting [6]); over 250 nM at CDK1/CCNB1 (x = IC50 >250 nM, read-out: CDK1/CCNB IC50 (>250 nM column)); over 250 nM on CDK4/CCND3 (x = IC50 >250 nM, read-out: CDK4/CCND IC50 (>250 nM column)); over 250 nM on CDK6/CCND1 (setting [9]).

As to `CC(C)S(=N)(=O)c1ccc(Nc2cc3c(C#Cc4cc5c(cc4N)C(C)(C)C(=O)N5)nccc3cn2)cc1` (single isomer, unassigned) [Ex 349, 5-amino-3,3-dimethyl-6-((7-((4-(propan-2-ylsulfonimidoyl)phenyl)amino)-2,6-naphthyridin-1-yl)ethynyl)indolin-2-one], the IC50 is under 25 nM at CDK2/CCNE1 (setting [6]), 25 to 250 nM at CDK1/CCNB1 (setting [7]), 25 to 250 nM at CDK4/CCND3 (setting [8]) and over 250 nM on CDK6/CCND1 (setting [9]).

Take `N=S(=O)(c1ccc(Nc2cc3c(C#Cc4ccc5c(c4)NC(=O)C54CC4)nccc3cn2)cc1)C1CCC1` (single isomer, unassigned) [Ex 350, 6'-((7-((4-(cyclobutanesulfonimidoyl)phenyl)amino)-2,6-naphthyridin-1-yl)ethynyl)spiro[cyclopropane-1,3'-indolin]-2'-one]: the IC50 is under 25 nM on CDK2/CCNE1 (setting [6]); 25 to 250 nM on CDK1/CCNB1 (setting [7]); under 25 nM on CDK4/CCND3 (x = IC50 <25 nM, read-out: CDK4/CCND IC50 (<25 nM)); 25 to 250 nM on CDK6/CCND1 (setting [10]).

Regarding `CC(C)S(=N)(=O)c1ccc(Nc2cc3c(C#Cc4ccc5c(c4)NC(=O)C54CC4)nccc3cn2)cc1` (single isomer, unassigned) [Ex 354, 6'-((7-((4-(propan-2-ylsulfonimidoyl)phenyl)amino)-2,6-naphthyridin-1-yl)ethynyl)spiro[cyclopropane-1,3'-indolin]-2'-one], the IC50 was under 25 nM at CDK2/CCNE1 (setting [6]), 25 to 250 nM on CDK1/CCNB1 (setting [7]), 25 to 250 nM on CDK4/CCND3 (setting [8]) and 25 to 250 nM on CDK6/CCND1 (setting [10]).

On to `CS(=N)(=O)c1ccc(Nc2cc3c(C#Cc4ccc5c(c4)NC(=O)C54CC4)nccc3cn2)cc1` (single isomer, unassigned) [Ex 358, 6'-((7-((4-(S-methylsulfonimidoyl)phenyl)amino)-2,6-naphthyridin-1-yl)ethynyl)spiro[cyclopropane-1,3'-indolin]-2'-one], for which the IC50 at CDK2/CCNE1 (setting [6]) was under 25 nM; at CDK1/CCNB1 (setting [7]), 25 to 250 nM; on CDK4/CCND3 (setting [8]) it was 25 to 250 nM; on CDK6/CCND1 (setting [9]), over 250 nM.

Take `N=S(=O)(c1ccc(Nc2cc3c(C#Cc4ccc5c(c4)NC(=O)C54CCC4)nccc3cn2)cc1)C1CCC1` (single isomer, unassigned) [Ex 363, 6'-((7-((4-(cyclobutanesulfonimidoyl)phenyl)amino)-2,6-naphthyridin-1-yl)ethynyl)spiro[cyclobutane-1,3'-indolin]-2'-one]: the IC50 is under 25 nM at CDK2/CCNE1 (setting [6]), 25 to 250 nM at CDK1/CCNB1 (setting [7]), 25 to 250 nM on CDK4/CCND3 (setting [8]) and 25 to 250 nM at CDK6/CCND1 (setting [10]).

On to `CCS(=N)(=O)c1ccc(Nc2cc3c(C#Cc4ccc5c(c4)NC(=O)C54CCC4)nccc3cn2)cc1` (single isomer, unassigned) [Ex 366, 6'-((7-((4-(ethylsulfonimidoyl)phenyl)amino)-2,6-naphthyridin-1-yl)ethynyl)spiro[cyclobutane-1,3'-indolin]-2'-one], for which the IC50 on CDK2/CCNE1 (setting [6]) is under 25 nM; on CDK1/CCNB1 (setting [7]), 25 to 250 nM; at CDK4/CCND3 (setting [8]) it was 25 to 250 nM; on CDK6/CCND1 (setting [10]) it was 25 to 250 nM.
